Test results published in patent US10618918B2, “Substituted boronic acids as antimicrobials” (priority 2015, dated 2020).
Where two headings read alike, the source gives them in different places.

Experiments:
AB1054 OXA-23 = test: Meropenem potentiation (MPC@8), strain AB1054 OXA-23; type: cell-based, Acinetobacter baumannii; conditions: minimum BLI concentration inhibiting growth with meropenem 8 μg/mL; tested up to 20 μg/mL
KP1004 KPC-2 [1] = test: Biapenem potentiation (MPC@1), strain KP1004 KPC-2; type: cell-based; conditions: minimum BLI concentration inhibiting growth with biapenem 1 μg/mL; tested up to 40 μg/mL
Procedure: (§1) Biapenem was present in the test medium at 1 μg/mL. […] Table 3 summarizes the BLI potency of biapenem potentiation (MPC@1) for two strains overexpressing class A (KPC) and class D (OXA-48) carbapenemases. Biapenem MIC for each strain is also shown.

ec308 SHV-5 = test: Aztreonam potentiation (MPC@4), strain ec308 SHV-5; conditions: minimum BLI concentration inhibiting growth with aztreonam 4 μg/mL; tested up to 40 μg/mL
KP1010 SHV-12 = test: Aztreonam potentiation (MPC@4), strain KP1010 SHV-12; conditions: minimum BLI concentration inhibiting growth with aztreonam 4 μg/mL; tested up to 40 μg/mL
KP1009 CTX-M-15 = test: Aztreonam potentiation (MPC@4), strain KP1009 CTX-M-15; conditions: minimum BLI concentration inhibiting growth with aztreonam 4 μg/mL; tested up to 40 μg/mL
KP1086 OXA-48 = test: Biapenem potentiation (MPC@1), strain KP1086 OXA-48; type: cell-based; conditions: minimum BLI concentration inhibiting growth with biapenem 1 μg/mL; tested up to 40 μg/mL
Procedure: as §1

[2] = biological target: purified class A, C and D enzymes (β-lactamases) (Klebsiella pneumoniae, UniProt Q6XEC0); test: biochemical; type: biochemical; conditions: purified OXA-48; nitrocefin (NCF) as reporter substrate
[3] = biological target: T1, purified class A, C and D enzymes (β-lactamases) (Acinetobacter baumannii, UniProt Q9L4P2); test: biochemical; type: biochemical; conditions: purified OXA-23; nitrocefin (NCF) as reporter substrate
T1 construct: rows headed: Ki (OXA-23, NCF), uM; other: purified OXA-23; nitrocefin (NCF) as reporter substrate

[4] = biological target: T2, purified class A, C and D enzymes (β-lactamases) (Pseudomonas aeruginosa, UniProt P24735); test: biochemical; type: biochemical
T2 construct: rows headed: Ki (Pa-AmpC, NCF), uM; other: purified Pa-AmpC; nitrocefin (NCF) as reporter substrate

[5] = biological target: purified class A, C and D enzymes (β-lactamases) (Enterobacter cloacae, UniProt P05364); test: biochemical; type: biochemical
[6] = biological target: purified class A, C and D enzymes (β-lactamases) (Escherichia coli, UniProt Q9L5C7); test: biochemical; type: biochemical; conditions: purified CTX-M-14; nitrocefin (NCF) as reporter substrate
[7] = biological target: purified class A, C and D enzymes (β-lactamases) (Klebsiella pneumoniae, UniProt Q9F663); test: biochemical; type: biochemical; conditions: purified KPC-2; nitrocefin (NCF) as reporter substrate
AB1053 OXA-72 = test: Meropenem potentiation (MPC@8), strain AB1053 OXA-72; type: cell-based, Acinetobacter baumannii; conditions: minimum BLI concentration inhibiting growth with meropenem 8 μg/mL; tested up to 20 μg/mL
KP1005 CTX-M-14 = test: Tigemonam potentiation (MPC@4), strain KP1005 CTX-M-14; conditions: minimum BLI concentration inhibiting growth with tigemonam 4 μg/mL; tested up to 40 μg/mL
ECL1002 = test: Aztreonam potentiation (MPC@4), strain ECL1002; conditions: minimum BLI concentration inhibiting growth with aztreonam 4 μg/mL; tested up to 40 μg/mL
EC1010 CMY-6 = test: Aztreonam potentiation (MPC@4), strain EC1010 CMY-6; conditions: minimum BLI concentration inhibiting growth with aztreonam 4 μg/mL; tested up to 40 μg/mL
ec302 TEM-10 = test: Aztreonam potentiation (MPC@4), strain ec302 TEM-10; conditions: minimum BLI concentration inhibiting growth with aztreonam 4 μg/mL; tested up to 40 μg/mL
KP1004 KPC-2 [8] = test: Aztreonam potentiation (MPC@4), strain KP1004 KPC-2; conditions: minimum BLI concentration inhibiting growth with aztreonam 4 μg/mL; tested up to 40 μg/mL

T2 sequence (P24735 whole entry): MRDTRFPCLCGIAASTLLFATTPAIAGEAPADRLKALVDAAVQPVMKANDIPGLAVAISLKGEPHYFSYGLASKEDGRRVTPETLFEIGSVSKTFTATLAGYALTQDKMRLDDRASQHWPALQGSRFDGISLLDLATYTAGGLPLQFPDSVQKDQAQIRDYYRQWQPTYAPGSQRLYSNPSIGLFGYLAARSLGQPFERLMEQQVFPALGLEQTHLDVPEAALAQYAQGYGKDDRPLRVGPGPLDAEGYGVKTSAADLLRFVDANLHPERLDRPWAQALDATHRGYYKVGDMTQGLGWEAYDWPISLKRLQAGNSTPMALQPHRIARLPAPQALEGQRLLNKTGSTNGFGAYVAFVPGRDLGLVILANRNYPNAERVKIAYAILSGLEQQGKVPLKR
Sequence of purified class A, C and D enzymes (β-lactamases) (Escherichia coli, UniProt Q9L5C7) (Q9L5C7 entry or part of it): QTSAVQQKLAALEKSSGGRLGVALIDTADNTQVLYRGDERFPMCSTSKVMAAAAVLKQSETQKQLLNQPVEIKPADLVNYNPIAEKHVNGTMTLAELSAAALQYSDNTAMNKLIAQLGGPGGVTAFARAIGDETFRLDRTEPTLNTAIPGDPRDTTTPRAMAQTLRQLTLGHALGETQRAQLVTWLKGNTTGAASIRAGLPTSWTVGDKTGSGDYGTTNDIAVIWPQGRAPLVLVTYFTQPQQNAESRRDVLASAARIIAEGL
Sequence of purified class A, C and D enzymes (β-lactamases) (Enterobacter cloacae, UniProt P05364) (P05364 21-381): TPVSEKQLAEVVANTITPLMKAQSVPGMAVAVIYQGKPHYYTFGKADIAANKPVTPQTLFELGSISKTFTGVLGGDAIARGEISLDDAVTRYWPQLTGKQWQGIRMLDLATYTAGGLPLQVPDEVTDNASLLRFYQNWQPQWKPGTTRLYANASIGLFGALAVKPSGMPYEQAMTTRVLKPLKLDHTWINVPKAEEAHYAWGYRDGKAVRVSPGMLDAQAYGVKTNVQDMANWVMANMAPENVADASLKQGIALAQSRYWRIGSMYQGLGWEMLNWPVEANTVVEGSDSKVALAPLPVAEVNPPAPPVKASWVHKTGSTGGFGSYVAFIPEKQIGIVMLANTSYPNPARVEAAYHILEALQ
T1 sequence (Q9L4P2 whole entry): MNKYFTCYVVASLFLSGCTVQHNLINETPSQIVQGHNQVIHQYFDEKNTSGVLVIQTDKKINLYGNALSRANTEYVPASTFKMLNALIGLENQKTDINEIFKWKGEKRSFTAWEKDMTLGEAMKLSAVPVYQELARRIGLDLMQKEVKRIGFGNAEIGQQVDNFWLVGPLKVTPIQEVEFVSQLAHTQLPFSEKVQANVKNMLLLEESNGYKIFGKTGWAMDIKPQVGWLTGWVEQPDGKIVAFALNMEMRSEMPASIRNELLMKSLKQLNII

SMILES	MPM MPC8 AB1054 OXA-23 (AB1054 OXA-23)	BPM MPC1 KP1004 KPC-2 (KP1004 KPC-2 [1])	AZT MPC4 SHV-5 ec308 (ec308 SHV-5)	AZT MPC4 SHV-12 KP1010 (KP1010 SHV-12)	AZT MPC4 CTX-M-15 KP1009 (KP1009 CTX-M-15)	BPM MPC1 OXA-48 KP1086 (KP1086 OXA-48)	Ki (OXA-48, NCF), uM [2]	Ki [3]	Ki [4]	Ki (P99, NCF), uM [5]	Ki (CTX-M-14, NCF), uM [6]	Ki (KPC-2, NCF), uM [7]	MPM MPC8 AB1053 OXA-72 (AB1053 OXA-72)	TIG MPC4 CTX-M-14 KP1005 (KP1005 CTX-M-14)	AZT MPC4 ECL1002 (ECL1002)	AZT MPC4 CMY-6 EC1010 (EC1010 CMY-6)	AZT MPC4 TEM-10 ec302 (ec302 TEM-10)	AZT MPC4 KPC-2 KP1004 (KP1004 KPC-2 [8])	Ki ([4]; purified Pa-AmpC, nitrocefin (NCF) as reporter substrate, read-out: Ki (Pa-AmpC, NCF))	Ki (P99, NCF), uM ([5]; purified P99, nitrocefin (NCF) as reporter substrate)
CS(=O)(=O)Nc1ccc2c(c1C(=O)[O-])O[B-](O)(O)CC2.[Na+].[Na+] [Compound 51, Disodium; 4,4-dihydroxy-8-(methanesulfonamido)-5-oxa-4-boranuidabicyclo[4.4.0]deca-1(6),7,9-triene-7-carboxylate]	Z (Z = MPC@1 > 20 μg/mL)	X (X = MPC@1 ≤ 5 μg/mL)	X (X = MPC@4 ≤ 5 μg/mL)	X (X = MPC@4 ≤ 5 μg/mL)	Y (Y = 5 μg/mL < MPC@4 ≤ 20 μg/mL)	X (X = MPC@1 ≤ 5 μg/mL)	X (X = Ki ≤ 0.1 μM)	< 0.1 µM	< 0.1 µM	X (key: X = Ki ≤ 0.1 μM; Y = 0.1 μM < Ki ≤ 1 μM; Z = Ki > 1 μM)	X (X = Ki ≤ 0.1 μM)	X (X = Ki ≤ 0.1 μM)	Z (Z = MPC@1 > 20 μg/mL)	Z (Z = MPC@4 > 20 μg/mL)	Z (Z = MPC@4 > 20 μg/mL)	Y (Y = 5 μg/mL < MPC@4 ≤ 20 μg/mL)	X (X = MPC@4 ≤ 5 μg/mL)	Y (Y = 5 μg/mL < MPC@4 ≤ 20 μg/mL)	–	–
O=C([O-])c1c(CO)ccc2c1O[B-](O)(O)CC2.[Na+].[Na+] [Compound 49, Disodium; 4,4-dihydroxy-8-(hydroxymethyl)-5-oxa-4-boranuidabicyclo[4.4.0]deca-1(6),7,9-triene-7-carboxylate]	Y (Y = 5 μg/mL < MPC@1 ≤ 20 μg/mL)	X (X = MPC@1 ≤ 5 μg/mL)	X (X = MPC@4 ≤ 5 μg/mL)	X (X = MPC@4 ≤ 5 μg/mL)	X (X = MPC@4 ≤ 5 μg/mL)	X (X = MPC@1 ≤ 5 μg/mL)	X (X = Ki ≤ 0.1 μM)	< 0.1 µM	< 0.1 µM	X (key: X = Ki ≤ 0.1 μM; Y = 0.1 μM < Ki ≤ 1 μM; Z = Ki > 1 μM)	X (X = Ki ≤ 0.1 μM)	X (X = Ki ≤ 0.1 μM)	Y (Y = 5 μg/mL < MPC@1 ≤ 20 μg/mL)	X (X = MPC@4 ≤ 5 μg/mL)	X (X = MPC@4 ≤ 5 μg/mL)	X (X = MPC@4 ≤ 5 μg/mL)	X (X = MPC@4 ≤ 5 μg/mL)	X (X = MPC@4 ≤ 5 μg/mL)	–	–
CN(C)CCOc1ccc2c(c1C(=O)[O-])O[B-](O)(O)CC2.[Na+].[Na+] [Compound 48, Disodium; 8-[2-(dimethylamino)ethoxy]-4,4-dihydroxy-5-oxa-4-boranuidabicyclo[4.4.0]deca-1(6),7,9-triene-7-carboxylate]	Y (Y = 5 μg/mL < MPC@1 ≤ 20 μg/mL)	X (X = MPC@1 ≤ 5 μg/mL)	Y (Y = 5 μg/mL < MPC@4 ≤ 20 μg/mL)	X (X = MPC@4 ≤ 5 μg/mL)	Y (Y = 5 μg/mL < MPC@4 ≤ 20 μg/mL)	X (X = MPC@1 ≤ 5 μg/mL)	X (X = Ki ≤ 0.1 μM)	< 0.1 µM	0.1 to 1 µM	Y (key: X = Ki ≤ 0.1 μM; Y = 0.1 μM < Ki ≤ 1 μM; Z = Ki > 1 μM)	X (X = Ki ≤ 0.1 μM)	X (X = Ki ≤ 0.1 μM)	X (X = MPC@1 ≤ 5 μg/mL)	Z (Z = MPC@4 > 20 μg/mL)	Y (Y = 5 μg/mL < MPC@4 ≤ 20 μg/mL)	X (X = MPC@4 ≤ 5 μg/mL)	Y (Y = 5 μg/mL < MPC@4 ≤ 20 μg/mL)	X (X = MPC@4 ≤ 5 μg/mL)	–	–
O=C([O-])c1c(OCCN2CCOCC2)ccc2c1O[B-](O)(O)CC2.[Na+].[Na+] [Compound 27, Disodium; 4,4-dihydroxy-8-(2-morpholinoethoxy)-5-oxa-4-boranuidabicyclo[4.4.0]deca-1(6),7,9-triene-7-carboxylate]	Y (Y = 5 μg/mL < MPC@1 ≤ 20 μg/mL)	X (X = MPC@1 ≤ 5 μg/mL)	Y (Y = 5 μg/mL < MPC@4 ≤ 20 μg/mL)	X (X = MPC@4 ≤ 5 μg/mL)	Y (Y = 5 μg/mL < MPC@4 ≤ 20 μg/mL)	Y (Y = 5 μg/mL < MPC@1 ≤ 20 μg/mL)	X (X = Ki ≤ 0.1 μM)	< 0.1 µM	0.1 to 1 µM	X (key: X = Ki ≤ 0.1 μM; Y = 0.1 μM < Ki ≤ 1 μM; Z = Ki > 1 μM)	X (X = Ki ≤ 0.1 μM)	X (X = Ki ≤ 0.1 μM)	Y (Y = 5 μg/mL < MPC@1 ≤ 20 μg/mL)	Z (Z = MPC@4 > 20 μg/mL)	X (X = MPC@4 ≤ 5 μg/mL)	X (X = MPC@4 ≤ 5 μg/mL)	Y (Y = 5 μg/mL < MPC@4 ≤ 20 μg/mL)	X (X = MPC@4 ≤ 5 μg/mL)	–	–
O=C([O-])c1c(OCC2CC2)ccc2c1O[B-](O)(O)CC2.[Na+].[Na+] [Compound 45, Disodium; 8-(cyclopropylmethoxy)-4,4-dihydroxy-5-oxa-4-boranuidabicyclo[4.4.0]deca-1(6),7,9-triene-7-carboxylate]	X (X = MPC@1 ≤ 5 μg/mL)	X (X = MPC@1 ≤ 5 μg/mL)	Y (Y = 5 μg/mL < MPC@4 ≤ 20 μg/mL)	X (X = MPC@4 ≤ 5 μg/mL)	Z (Z = MPC@4 > 20 μg/mL)	X (X = MPC@1 ≤ 5 μg/mL)	X (X = Ki ≤ 0.1 μM)	< 0.1 µM	< 0.1 µM	X (key: X = Ki ≤ 0.1 μM; Y = 0.1 μM < Ki ≤ 1 μM; Z = Ki > 1 μM)	X (X = Ki ≤ 0.1 μM)	X (X = Ki ≤ 0.1 μM)	X (X = MPC@1 ≤ 5 μg/mL)	Z (Z = MPC@4 > 20 μg/mL)	Y (Y = 5 μg/mL < MPC@4 ≤ 20 μg/mL)	X (X = MPC@4 ≤ 5 μg/mL)	Y (Y = 5 μg/mL < MPC@4 ≤ 20 μg/mL)	X (X = MPC@4 ≤ 5 μg/mL)	–	–
COc1c(F)cc2c(c1C(=O)O)OB(O)CC2 [Compound 34, 6-Fluoro-2-hydroxy-7-methoxy-3,4-dihydro-1,2-benzoxaborinine-8-carboxylic acid]	X (X = MPC@1 ≤ 5 μg/mL)	X (X = MPC@1 ≤ 5 μg/mL)	X (X = MPC@4 ≤ 5 μg/mL)	X (X = MPC@4 ≤ 5 μg/mL)	X (X = MPC@4 ≤ 5 μg/mL)	X (X = MPC@1 ≤ 5 μg/mL)	X (X = Ki ≤ 0.1 μM)	< 0.1 µM	–	–	X (X = Ki ≤ 0.1 μM)	X (X = Ki ≤ 0.1 μM)	X (X = MPC@1 ≤ 5 μg/mL)	Z (Z = MPC@4 > 20 μg/mL)	X (X = MPC@4 ≤ 5 μg/mL)	X (X = MPC@4 ≤ 5 μg/mL)	X (X = MPC@4 ≤ 5 μg/mL)	X (X = MPC@4 ≤ 5 μg/mL)	< 0.1 µM	X (X = Ki ≤ 0.1 μM)
